Measured values published in patent US11459324B2, “O-glycoprotein-2-acetamido-2-deoxy-3-D-glycopyranosidase inhibitors” (BIOGEN MA INC., priority 2018, dated 2022).

Biological target: T1, Recombinant full length human OGA enzyme (Homo sapiens, UniProt O60502)
T1 construct: Recombinant full length human OGA enzyme was purchased from Origene; purchased Origene
T1 sequence (O60502 1-916): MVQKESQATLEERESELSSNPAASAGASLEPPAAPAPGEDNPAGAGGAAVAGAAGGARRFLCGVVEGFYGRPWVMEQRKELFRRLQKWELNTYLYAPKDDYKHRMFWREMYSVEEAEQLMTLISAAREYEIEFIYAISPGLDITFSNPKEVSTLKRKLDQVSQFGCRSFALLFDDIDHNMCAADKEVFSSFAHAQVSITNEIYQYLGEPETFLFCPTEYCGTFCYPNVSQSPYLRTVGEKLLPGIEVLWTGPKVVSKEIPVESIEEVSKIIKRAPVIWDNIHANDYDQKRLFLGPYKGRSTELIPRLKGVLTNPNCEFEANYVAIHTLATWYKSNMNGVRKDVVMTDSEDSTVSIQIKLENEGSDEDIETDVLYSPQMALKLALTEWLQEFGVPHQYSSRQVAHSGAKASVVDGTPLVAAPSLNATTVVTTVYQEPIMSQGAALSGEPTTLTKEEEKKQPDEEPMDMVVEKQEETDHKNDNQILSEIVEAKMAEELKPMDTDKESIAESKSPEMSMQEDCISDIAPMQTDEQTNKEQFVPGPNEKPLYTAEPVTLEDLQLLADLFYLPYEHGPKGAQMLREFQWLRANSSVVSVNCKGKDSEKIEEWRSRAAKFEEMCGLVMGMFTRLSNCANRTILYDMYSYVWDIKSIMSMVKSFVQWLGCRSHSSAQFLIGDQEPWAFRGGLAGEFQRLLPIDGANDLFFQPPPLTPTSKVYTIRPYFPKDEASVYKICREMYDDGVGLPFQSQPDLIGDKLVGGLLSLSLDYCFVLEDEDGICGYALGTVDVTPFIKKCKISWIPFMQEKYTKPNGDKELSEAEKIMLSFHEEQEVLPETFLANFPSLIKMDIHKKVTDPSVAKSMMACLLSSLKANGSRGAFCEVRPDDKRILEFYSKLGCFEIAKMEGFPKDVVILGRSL
Experiment: OGA Enzyme Inhibition Biochemical Assay
Settings: 1 nM OGA, 100 μM 4-MUGlcNAc (Km), pH 6.4, 90 minutes at room temperature, 10-point dose-response from 20 μM
Procedure: OGA Enzyme Inhibition Biochemical Assay
Recombinant full length human OGA enzyme was purchased from Origene. 4-MUGlCNAc substrate was purchased from Sigma. All other reagents were purchased from Sigma or Fisher. Assay buffer consists of the McIlvaine buffer system, pH 6.4 (0.2M Na2HPO4 mixed with 0.1M citric acid) and 0.01% BSA. Reactions consist of 1 nM OGA, 100 μM 4-MUGlcNAc (Km), and compound in a final volume of 10 μl. Reactions were incubated for 90 minutes at room temperature and quenched with 40 μl of 3M glycine, pH 10 and read on a Perkin Elmer Envision plate reader (Ex: 355 nm/Em: 460 nm). Compounds were tested with a 10-point dose-response starting from 20 μM with a 4-fold dilution. Data was fit using GraphPad Prism using a 4-parameter fit with variable slope.

IC50 [nM]	SMILES
1.3	COc1cc(C[C@H]2CCCN(Cc3cnc(NC(C)=O)s3)C2)ncn1 [Example 3-23, (R)-N-(5-((3-((6-methoxypyrimidin-4-yl)methyl)piperidin-1-yl)methyl)thiazol-2-yl)acetamide]
4.4	COc1cc(C[C@H]2C[C@@H](C)N(Cc3sc(NC(C)=O)nc3F)C2)ncn1 [Example 3-45, N-(4-fluoro-5-(((2R,4R)-4-((6-methoxypyrimidin-4-yl)methyl)-2-methylpyrrolidin-1-yl)methyl)thiazol-2-yl)acetamide]
450	CC(=O)Nc1ncc(CN2CCCC(C)(Cc3ncc(F)cn3)C2)s1 (stereo not shown) [Example 2-34, N-(5-((3-((5-fluoropyrimidin-2-yl)methyl)-3-methylpiperidin-1-yl)methyl)thiazol-2-yl)acetamide]
240	CC(=O)Nc1ncc(CN2CCCC(F)(Cc3ncc(F)cn3)C2)s1 (stereo not shown) [Example 2-12, N-(5-((3-fluoro-3-((5-fluoropyrimidin-2-yl)methyl)piperidin-1-yl)methyl)thiazol-2-yl)acetamide]
1	CC(=O)Nc1ncc(CN2CC[C@H](C)[C@H](Cc3ncc(F)cn3)C2)s1 (single isomer, unassigned) [Example 2-39]
18	CC(=O)Nc1ncc(CN2CCC[C@H](Cc3ccc(C(F)F)nc3)C2)s1 [Example 2-8, (R)-N-(5-((3-((6-(difluoromethyl)pyridin-3-yl)methyl)piperidin-1-yl)methyl)thiazol-2-yl)acetamide]
< 1	COc1nc(C[C@H]2CCN(Cc3cnc(NC(C)=O)s3)C2)nc(C)c1F [Example 3-9, (R)-N-(5-((3-((5-fluoro-4-methoxy-6-methylpyrimidin-2-yl)methyl)pyrrolidin-1-yl)methyl)thiazol-2-yl)acetamide]
3	CC(=O)Nc1ncc(CN2CCC[C@H](Cc3ncc(F)c(C)n3)C2)s1 [Example 2-7, (R)-N-(5-((3-((5-fluoro-4-methylpyrimidin-2-yl)methyl)piperidin-1-yl)methyl)thiazol-2-yl)acetamide]
< 1	COc1cc(C[C@H]2CCCN(Cc3sc(NC(C)=O)nc3F)C2)ccn1 [Example 3-19, (R)-N-(4-fluoro-5-((3-((2-methoxypyridin-4-yl)methyl)piperidin-1-yl)methyl)thiazol-2-yl)acetamide]
27	CC(=O)Nc1ncc(CN2CC[C@H](C)[C@@H](Cc3ncc(F)cn3)C2)s1 (single isomer, unassigned) [Example 2-38]
9.2	CC(=O)Nc1nc(F)c(CN2C[C@@H](Cc3ncc(F)cn3)CC[C@@H]2C)s1 [Example 2-53, N-(4-fluoro-5-(((2S,5R)-5-((5-fluoropyrimidin-2-yl)methyl)-2-methylpiperidin-1-yl)methyl)thiazol-2-yl)acetamide]
< 1	CC(=O)Nc1ncc(CN2CCC[C@H](Cc3ccnc(C)n3)C2)s1 [Example 3-4, (R)-N-(5-((3-((2-methylpyrimidin-4-yl)methyl)piperidin-1-yl)methyl)thiazol-2-yl)acetamide]
84	CC(=O)Nc1ncc(CN2CCC(Cc3ccccn3)C2)s1 (stereo not shown) [Example 2-15, N-(5-((3-(pyridin-2-ylmethyl)pyrrolidin-1-yl)methyl)thiazol-2-yl)acetamide]
< 1	CC(=O)Nc1nc(F)c(CN2CCC[C@H](Cc3ccc(C)nc3)C2)s1 [Example 3-20, (R)-N-(4-fluoro-5-((3-((6-methylpyridin-3-yl)methyl)piperidin-1-yl)methyl)thiazol-2-yl)acetamide]
11	CC(=O)Nc1ncc(CN2CC[C@H](Cc3ncc(F)c(C)n3)C2)s1 [Example 3-11, (R)-N-(5-((3-((5-fluoro-4-methylpyrimidin-2-yl)methyl)pyrrolidin-1-yl)methyl)thiazol-2-yl)acetamide]
> 20000	CC(=O)Nc1ncc(CN2CC(Cc3ncc(F)cn3)CC[C@H]2C(F)(F)F)s1 (stereo partly shown) [Example 2-49]
12	CC(=O)Nc1nnc(CN2CCC[C@H](Cc3ncc(F)cn3)C2)s1 (stereo in doubt) [Example 3-14, N-(5-((3-((5-fluoropyrimidin-2-yl)methyl)piperidin-1-yl)methyl)-1,3,4-thiadiazol-2-yl)acetamide]
< 1	CC(=O)Nc1nc(F)c(CN2CC[C@H](Cc3cc(C)nc(C)c3)C2)s1 [Example 3-24, (S)—N-(5-((3-((2,6-dimethylpyridin-4-yl)methyl)pyrrolidin-1-yl)methyl)-4-fluorothiazol-2-yl)acetamide]
1	CC(=O)Nc1ncc(CN2C[C@H](Cc3ncc(F)cn3)C[C@H]2C)s1 (single isomer, unassigned) [Example 2-20]
< 1	CC(=O)Nc1nc(F)c(CN2CCC[C@H](Cc3ccnc(C)c3)C2)s1 [Example 3-18, (R)-N-(4-fluoro-5-((3-((2-methylpyridin-4-yl)methyl)piperidin-1-yl)methyl)thiazol-2-yl)acetamide]
1200	CC(=O)Nc1ncc(CN2C[C@H](Cc3ncc(F)cn3)C[C@@H]2C(F)(F)F)s1 (single isomer, unassigned) [Example 2-47]

Continued, compound first:

SMILES	IC50 [nM]
CC(=O)Nc1ncc(CN2CCCC(Cc3cncs3)C2)s1 (stereo not shown) [Example 1-37, N-(5-((3-(thiazol-5-ylmethyl)piperidin-1-yl)methyl)thiazol-2-yl)acetamide]	4
CC(=O)Nc1ncc(CN2CCCC(Cc3cccc(C)n3)C2)s1 (stereo not shown) [Example 1-29, N-(5-((3-((6-methylpyridin-2-yl)methyl)piperidin-1-yl)methyl)thiazol-2-yl)acetamide]	2
CC(=O)Nc1ncc(CN2CCCC(Cc3cncc(C(F)(F)F)n3)C2)s1 (stereo not shown) [Example 1-26, N-(5-((3-((6-(trifluoromethyl)pyrazin-2-yl)methyl)piperidin-1-yl)methyl)thiazol-2-yl)acetamide]	30
COc1cc(CC2CCN(Cc3cnc(NC(C)=O)s3)C2)ccn1 (stereo not shown) [Example 1-19, N-(5-((3-((2-methoxypyridin-4-yl)methyl)pyrrolidin-1-yl)methyl)thiazol-2-yl)acetamide]	10
COc1ccc(CC2CCCN(Cc3cnc(NC(C)=O)s3)C2)cn1 (stereo not shown) [Example 1-11, N-(5-((3-((6-methoxypyridin-3-yl)methyl)piperidin-1-yl)methyl)thiazol-2-yl)acetamide]	4
CC(=O)Nc1ncc(CN2CCCC(Cc3nc(C)cs3)C2)s1 (stereo not shown) [Example 1-34, N-(5-((3-((4-methylthiazol-2-yl)methyl)piperidin-1-yl)methyl)thiazol-2-yl)acetamide]	5
CC(=O)Nc1ncc(CN2CCCC(Cc3csc(C)n3)C2)s1 (stereo not shown) [Example 1-36, N-(5-((3-((2-methylthiazol-4-yl)methyl)piperidin-1-yl)methyl)thiazol-2-yl)acetamide]	30
CC(=O)Nc1ncc(CN2CCCC(Cc3ncc(C)s3)C2)s1 (stereo not shown) [Example 1-35, N-(5-((3-((5-methylthiazol-2-yl)methyl)piperidin-1-yl)methyl)thiazol-2-yl)acetamide]	5
COc1cccc(CC2CCCN(Cc3cnc(NC(C)=O)s3)C2)c1 (stereo not shown) [Example 1-3, N-(5-((3-(3-methoxybenzyl)piperidin-1-yl)methyl)thiazol-2-yl)acetamide]	33
COc1cncc(CC2CCCN(Cc3cnc(NC(C)=O)s3)C2)n1 (stereo not shown) [Example 1-32, N-(5-((3-((6-methoxypyrazin-2-yl)methyl)piperidin-1-yl)methyl)thiazol-2-yl)acetamide]	2
